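At the GI50, growth is halved. TGI is the concentration that stops growth completely.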
Key:
Test in all cases: DTP human tumour cell line panel, 384-well format
[1] = test system: 786-0 renal
[2] = test system: A498 renal
[3] = test system: A549 NSCLC
[4] = test system: ACHN renal
[5] = test system: BT-549 breast
[6] = test system: CAKI-1 renal
[7] = test system: CCRF-CEM leukemia
[8] = test system: COLO 205 colon
[9] = test system: DU-145 prostate
[10] = test system: EKVX NSCLC
[11] = test system: HCC-2998 colon
[12] = test system: HCT-15 colon
[13] = test system: HL-60(TB) leukemia
[14] = test system: HOP-62 NSCLC
[15] = test system: HOP-92 NSCLC
[16] = test system: HS 578T breast
[17] = test system: HT29 colon
[18] = test system: IGROV1 ovarian
[19] = test system: KM12 colon
[20] = test system: M14 melanoma
[21] = test system: MALME-3M melanoma
[22] = test system: MCF7 breast
[23] = test system: MDA-MB-231 breast
[24] = test system: MDA-MB-435 melanoma
[25] = test system: MDA-MB-468 breast
[26] = test system: MOLT-4 leukemia
[27] = test system: NCI-H226 lung
[28] = test system: NCI-H23 lung
[29] = test system: NCI-H322M lung
[30] = test system: NCI-H460 NSCLC
[31] = test system: NCI-H522 lung
[32] = test system: NCI/ADR-RES ovarian
[33] = test system: OVCAR-3 ovarian
[34] = test system: OVCAR-4 ovarian
[35] = test system: OVCAR-5 ovarian
[36] = test system: OVCAR-8 ovarian
[37] = test system: PC-3 prostate
[38] = test system: RPMI-8226 leukemia
[39] = test system: RXF 393 renal
[40] = test system: SF-268 CNS
[41] = test system: SF-295 CNS
[42] = test system: SF-539 CNS
[43] = test system: SK-MEL-2 melanoma
[44] = test system: SK-MEL-28 melanoma
[45] = test system: SK-MEL-5 melanoma
[46] = test system: SK-OV-3 ovarian
[47] = test system: SN12C renal
[48] = test system: SNB-19 CNS
[49] = test system: SNB-75 CNS
[50] = test system: SR leukemia
[51] = test system: SW-620 colon
[52] = test system: T-47D breast
[53] = test system: TK-10 renal
[54] = test system: U251 glioblastoma
[55] = test system: UACC-257 melanoma
[56] = test system: UACC-62 melanoma

Which GI50 [1] does the source give for `Nc1nc(F)nc2c1ncn2C1OC(CO)C(O)C1O` (configuration not stated) here?
Its GI50 is 17.8 µM.

And the TGI [1]?
Its TGI is 56 µM.

What about the GI50 [2] of the same molecule?
The GI50 was 19.4 µM.

What about the TGI [2] of the same molecule?
The TGI was 73.7 µM.

What about the GI50 [3] of the same molecule?
Its GI50 is 29.8 µM.

And the TGI [3]?
The TGI was greater than 100 µM.

And the GI50 [4]?
Its GI50 is 21.7 µM.

And the TGI [4]?
The TGI was 48.5 µM.

What about the GI50 [5] of the same molecule?
The GI50 was 12 µM.

And the TGI [5]?
Its TGI is 46.1 µM.

And the GI50 [6]?
Its GI50 is 17.4 µM.

And the TGI [6]?
The TGI was 50.3 µM.

And the GI50 [7]?
Its GI50 is 0.316 µM.

What about the TGI [7] of the same molecule?
Its TGI is 1.23 µM.

What about the GI50 [8] of the same molecule?
Its GI50 is 11 µM.

What about the TGI [8] of the same molecule?
Its TGI is 37.3 µM.

And the GI50 [9]?
The GI50 was 15.5 µM.

And the TGI [9]?
The TGI was 57.5 µM.

What about the GI50 [10] of the same molecule?
The GI50 was greater than 100 µM.

What about the TGI [10] of the same molecule?
The TGI was greater than 100 µM.

What about the GI50 [11] of the same molecule?
The GI50 was 2.11 µM.

And the TGI [11]?
Its TGI is 8.44 µM.

And the GI50 [12]?
Its GI50 is 32.2 µM.

What about the TGI [12] of the same molecule?
The TGI was greater than 100 µM.

What about the GI50 [13] of the same molecule?
The GI50 was 2.12 µM.

What about the TGI [13] of the same molecule?
The TGI was 3.75 µM.

What about the GI50 [14] of the same molecule?
The GI50 was 5.5 µM.

And the TGI [14]?
Its TGI is 21 µM.

And the GI50 [15]?
The GI50 was 7.81 µM.

And the TGI [15]?
The TGI was 56.8 µM.

And the GI50 [16]?
The GI50 was 30.6 µM.

And the TGI [16]?
The TGI was greater than 100 µM.

And the GI50 [17]?
Its GI50 is 81.4 µM.

And the TGI [17]?
The TGI was greater than 100 µM.

And the GI50 [18]?
Its GI50 is 44.8 µM.

And the TGI [18]?
Its TGI is greater than 100 µM.

What about the GI50 [19] of the same molecule?
The GI50 was 26.4 µM.

What about the TGI [19] of the same molecule?
Its TGI is greater than 100 µM.

What about the GI50 [20] of the same molecule?
Its GI50 is 2.6 µM.

What about the TGI [20] of the same molecule?
The TGI was 8.62 µM.

And the GI50 [21]?
The GI50 was 1.81 µM.

And the TGI [21]?
The TGI was 8.06 µM.

What about the GI50 [22] of the same molecule?
Its GI50 is 26.6 µM.

And the TGI [22]?
The TGI was greater than 100 µM.

And the GI50 [23]?
The GI50 was 6.96 µM.

And the TGI [23]?
The TGI was 47.9 µM.

What about the GI50 [24] of the same molecule?
The GI50 was 12.4 µM.

What about the TGI [24] of the same molecule?
The TGI was greater than 100 µM.

What about the GI50 [25] of the same molecule?
The GI50 was 26.5 µM.

What about the TGI [25] of the same molecule?
Its TGI is 82.8 µM.

And the GI50 [26]?
Its GI50 is 1.15 µM.

And the TGI [26]?
Its TGI is 2.37 µM.

What about the GI50 [27] of the same molecule?
Its GI50 is 95.9 µM.

And the TGI [27]?
The TGI was greater than 100 µM.

And the GI50 [28]?
The GI50 was 3.55 µM.

And the TGI [28]?
Its TGI is 15.7 µM.

What about the GI50 [29] of the same molecule?
Its GI50 is greater than 100 µM.

And the TGI [29]?
The TGI was greater than 100 µM.

And the GI50 [30]?
The GI50 was 16.5 µM.

What about the TGI [30] of the same molecule?
Its TGI is 35.8 µM.

What about the GI50 [31] of the same molecule?
Its GI50 is 4.68 µM.

And the TGI [31]?
The TGI was 36.9 µM.

And the GI50 [32]?
The GI50 was 2.34 µM.

What about the TGI [32] of the same molecule?
The TGI was 6.41 µM.

What about the GI50 [33] of the same molecule?
Its GI50 is 7.9 µM.

And the TGI [33]?
The TGI was greater than 100 µM.

What about the GI50 [34] of the same molecule?
Its GI50 is greater than 100 µM.

And the TGI [34]?
Its TGI is greater than 100 µM.

And the GI50 [35]?
Its GI50 is 34.2 µM.

What about the TGI [35] of the same molecule?
The TGI was greater than 100 µM.

And the GI50 [36]?
Its GI50 is 1.98 µM.

And the TGI [36]?
Its TGI is 4.61 µM.

What about the GI50 [37] of the same molecule?
Its GI50 is 10.8 µM.

And the TGI [37]?
The TGI was greater than 100 µM.

What about the GI50 [38] of the same molecule?
Its GI50 is 45.1 µM.

And the TGI [38]?
The TGI was greater than 100 µM.

And the GI50 [39]?
Its GI50 is 44.2 µM.

And the TGI [39]?
The TGI was greater than 100 µM.

And the GI50 [40]?
The GI50 was 19.8 µM.

And the TGI [40]?
The TGI was 54.7 µM.

And the GI50 [41]?
Its GI50 is 76.2 µM.

And the TGI [41]?
Its TGI is greater than 100 µM.

And the GI50 [42]?
Its GI50 is 59 µM.

And the TGI [42]?
The TGI was greater than 100 µM.

And the GI50 [43]?
Its GI50 is 4.7 µM.

And the TGI [43]?
The TGI was 16.6 µM.

And the GI50 [44]?
The GI50 was 3.11 µM.

What about the TGI [44] of the same molecule?
Its TGI is 15.2 µM.

And the GI50 [45]?
Its GI50 is 14.1 µM.

What about the TGI [45] of the same molecule?
Its TGI is 43.4 µM.

What about the GI50 [46] of the same molecule?
Its GI50 is 10.1 µM.

What about the TGI [46] of the same molecule?
Its TGI is 44.1 µM.

What about the GI50 [47] of the same molecule?
The GI50 was 6.16 µM.

What about the TGI [47] of the same molecule?
Its TGI is 24.6 µM.

And the GI50 [48]?
Its GI50 is 7.28 µM.

What about the TGI [48] of the same molecule?
Its TGI is 42.8 µM.

What about the GI50 [49] of the same molecule?
The GI50 was 23.1 µM.

And the TGI [49]?
The TGI was greater than 100 µM.

What about the GI50 [50] of the same molecule?
The GI50 was greater than 100 µM.

What about the TGI [50] of the same molecule?
Its TGI is greater than 100 µM.

What about the GI50 [51] of the same molecule?
The GI50 was 49.8 µM.

What about the TGI [51] of the same molecule?
Its TGI is greater than 100 µM.

And the GI50 [52]?
Its GI50 is 34.9 µM.

What about the TGI [52] of the same molecule?
The TGI was greater than 100 µM.

And the GI50 [53]?
Its GI50 is greater than 100 µM.

What about the TGI [53] of the same molecule?
Its TGI is greater than 100 µM.

What about the GI50 [54] of the same molecule?
Its GI50 is 36.7 µM.

What about the TGI [54] of the same molecule?
Its TGI is greater than 100 µM.

What about the GI50 [55] of the same molecule?
Its GI50 is 50.8 µM.

And the TGI [55]?
Its TGI is greater than 100 µM.

What about the GI50 [56] of the same molecule?
The GI50 was 28.8 µM.

What about the TGI [56] of the same molecule?
The TGI was 96.8 µM.

Source: PubChem BioAssay (NCI)
